In ChEMBL document CHEMBL1201862, “PubChem BioAssay data set” (2004):
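1) Cells in 96-well plates. 2) Compound, 48 h, 5 concentrations. 3) Linear interpolation between surrounding doses. 4) Unreached endpoint = highest concentration. Here, GI50 denotes the concentration required for 50% inhibition of growth.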 Active and inactive are the calls of the source. No stated cut-off is given here; in the data, active = GI50 up to about 1.1 µM and inactive = higher.

Tests used:
Test in all cases: NCI tumour cell line growth inhibition, 48 h
786-0 = tested on: 786-0
A549 = tested on: A549
ACHN = tested on: ACHN
CCRF-CEM = tested on: CCRF-CEM
COLO 205 = tested on: COLO 205
DLD-1 = tested on: DLD-1
DMS-273 = tested on: DMS-273
EKVX = tested on: EKVX
HCC 2998 = tested on: HCC 2998
HCT-116 = tested on: HCT-116
HCT-15 = tested on: HCT-15
HL-60 = tested on: HL-60
HOP-62 = tested on: HOP-62
HOP-92 = tested on: HOP-92
HT-29 = tested on: HT-29
IGROV-1 = tested on: IGROV-1
K562 = tested on: K562
KM-20L2 = tested on: KM-20L2
KM12 = tested on: KM12
LOX IMVI = tested on: LOX IMVI
LXFL 529 = tested on: LXFL 529
M14 = tested on: M14
M19-MEL = tested on: M19-MEL
MOLT-4 = tested on: MOLT-4
Malme-3M = tested on: Malme-3M
NCI-H226 = tested on: NCI-H226
NCI-H23 = tested on: NCI-H23
NCI-H460 = tested on: NCI-H460
NCI-H522 = tested on: NCI-H522
OVCAR-3 = tested on: OVCAR-3
OVCAR-4 = tested on: OVCAR-4
OVCAR-8 = tested on: OVCAR-8
RXF 393 = tested on: RXF 393
SF-268 = tested on: SF-268
SF-295 = tested on: SF-295
SF-539 = tested on: SF-539
SK-MEL-28 = tested on: SK-MEL-28
SK-MEL-2 = tested on: SK-MEL-2
SK-MEL-5 = tested on: SK-MEL-5
SK-OV-3 = tested on: SK-OV-3
SN12C = tested on: SN12C
SNB-19 = tested on: SNB-19
SNB-75 = tested on: SNB-75
SNB-78 = tested on: SNB-78
SR = tested on: SR
SW-620 = tested on: SW-620
TK-10 = tested on: TK-10
U-251 = tested on: U-251
UACC-257 = tested on: UACC-257
UACC-62 = tested on: UACC-62
UO-31 = tested on: UO-31
XF498 = tested on: XF498

Cc1ccc(-n2c(C)nc3c2C(=O)c2ccccc2C3=O)cc1
GI50 (786-0): 18.5 µM (inactive)
GI50 (A549): 28.9 µM (inactive)
GI50 (ACHN): 27.9 µM (inactive)
GI50 (CCRF-CEM): 11.1 µM (inactive)
GI50 (COLO 205): 14.6 µM (inactive)
GI50 (DLD-1): 9.33 µM (inactive)
GI50 (DMS-273): 9.86 µM (inactive)
GI50 (EKVX): > 100 µM (inactive)
GI50 (HCC 2998): 57.5 µM (inactive)
GI50 (HCT-116): 5.73 µM (inactive)
GI50 (HCT-15): 7.53 µM
GI50 (HL-60): 9.14 µM (inactive)
GI50 (HOP-62): 41.2 µM (inactive)
GI50 (HOP-92): 49.4 µM (inactive)
GI50 (HT-29): 11.9 µM (inactive)
GI50 (IGROV-1): 27.9 µM (inactive)
GI50 (K562): 5.86 µM (inactive)
GI50 (KM-20L2): 18.3 µM (inactive)
GI50 (KM12): > 100 µM (inactive)
GI50 (LOX IMVI): 7.98 µM (inactive)
GI50 (LXFL 529): 9.84 µM (inactive)
GI50 (M14): 58.2 µM (inactive)
GI50 (M19-MEL): 12 µM (inactive)
GI50 (MOLT-4): > 100 µM (inactive)
GI50 (Malme-3M): 20.4 µM (inactive)
GI50 (NCI-H226): > 100 µM (inactive)
GI50 (NCI-H23): 25.9 µM (inactive)
GI50 (NCI-H460): 4.44 µM (inactive)
GI50 (NCI-H522): 34.7 µM (inactive)
GI50 (OVCAR-3): 21.8 µM (inactive)
GI50 (OVCAR-4): 82.8 µM (inactive)
GI50 (OVCAR-8): 17.4 µM (inactive)
GI50 (RXF 393): > 100 µM (inactive)
GI50 (SF-268): 7.41 µM (inactive)
GI50 (SF-295): 25 µM (inactive)
GI50 (SF-539): 10.4 µM (inactive)
GI50 (SK-MEL-28): 52.6 µM (inactive)
GI50 (SK-MEL-2): 40.7 µM (inactive)
GI50 (SK-MEL-5): 15.2 µM (inactive)
GI50 (SK-OV-3): > 100 µM (inactive)
GI50 (SN12C): 28.4 µM (inactive)
GI50 (SNB-19): 71.9 µM (inactive)
GI50 (SNB-75): 34.4 µM (inactive)
GI50 (SNB-78): > 100 µM (inactive)
GI50 (SR): > 100 µM (inactive)
GI50 (SW-620): 33.5 µM (inactive)
GI50 (TK-10): > 100 µM (inactive)
GI50 (U-251): 9.46 µM (inactive)
GI50 (UACC-257): 19.1 µM (inactive)
GI50 (UACC-62): 8.57 µM (inactive)
GI50 (UO-31): 66.7 µM (inactive)
GI50 (XF498): 50.5 µM (inactive)
